According to patent US9540377B2, “2,6,7,8 substituted purines as HDM2 inhibitors” (Merck Sharp & Dohme Corp., priority 2013, dated 2017):

What follows are compounds tested against HDM2 (truncated, residues 17 to 125, containing p53 binding surface) (Homo sapiens (Human), UniProt Q00987) (assay: HDM2 FRET assay (inhibition of binding of FITC labeled p53-site peptide to HDM2)). Settings: Table 16.
Description: IC50 DETERMINATIONS: Dose-response curves were plotted from the inhibition data, from 10 point serial dilutions of inhibitory compounds. Concentration of compound was plotted against em520/Cem495 ratio signal. To generate IC50 values, the dose-response curves were fitted to a standard sigmoidal curve and IC50 values were derived by nonlinear regression analysis.

HDM2 (truncated, residues 17 to 125, containing p53 binding surface), sequence (Q00987 17-125): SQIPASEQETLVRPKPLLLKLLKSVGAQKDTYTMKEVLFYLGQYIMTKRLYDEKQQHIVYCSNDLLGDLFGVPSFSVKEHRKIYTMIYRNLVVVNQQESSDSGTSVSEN

Question: For `C[C@H]1CC[C@H](Cn2c(N3CCOC4CCCCC43)nc3nc(-c4noc(=O)[nH]4)nc(-c4cccc(Cl)c4)c32)CC1` (single isomer, unassigned) [Example 16.77, 3-(6-(3-chlorophenyl)-7-[(trans-4-methylcyclohexyl)methyl]-8-(octahydro-4H-1,4-benzoxazin-4-yl)-7H-purin-2-yl]-1,2,4-oxadiazol-5(4H)-one], which IC50 is on record?
Answer: Its IC50 is 29.7 nM.

Question: `Cc1noc(C2CCCN2c2nc3nc(-c4n[nH]c(=O)o4)nc(-c4cncc(Cl)c4)c3n2C[C@H]2CC[C@H](C)CC2)n1` (mixture of isomers) [Example 16.146, 5-{6-(5-chloropyridin-3-yl)-7-[(trans-4-methylcyclohexyl)methyl]-8-[2-(3-methyl-1,2,4-oxadiazol-5-yl)pyrrolidin-1-yl]-7H-purin-2-yl}-1,3,4-oxadiazol-2(3H)-one] was tested. Which IC50 did it give?
Answer: The IC50 was 3.04 nM.

Question: How did the IC50 turn out when `C[C@H]1CC[C@H](Cn2c(N3CCCC4COCCC43)nc3nc(-c4noc(=O)[nH]4)nc(-c4cccc(Cl)c4)c32)CC1` (single isomer, unassigned) [Example 16.119, 3-{6-[3-chlorophenyl)-8-(hexahydro-2H-pyrano[4,3-b]pyridin-1(5H)-yl)-7-[(trans-4-methylcyclohexyl)methyl]-7H-purin-2-yl}-1,2,4-oxadiazol-5(4H)-one] was run?
Answer: Its IC50 is 60.9 nM.

Question: For `COC(C)(C)C1CCCN1c1nc2nc(-c3noc(=O)[nH]3)nc(-c3cncc(Cl)c3)c2n1C[C@H]1CC[C@H](C)CC1` (single isomer, unassigned) [Example 16.72, 3-{6-(5-chloropyridin-3-yl)-8-[2-(1-methoxy-1-methylethyl)pyrrolidin-1-yl]-7-[(trans-4-methylcyclohexyl)methyl]-7H-purin-2-yl}-1,2,4-oxadiazol-5(4H)-one], which IC50 is on record?
Answer: The IC50 was 0.985 nM.

Question: `C[C@H]1CC[C@H](Cn2c(N3CCCC4COCCC43)nc3nc(-c4n[nH]c(=O)o4)nc(-c4cncc(Cl)c4)c32)CC1` (single isomer, unassigned) [Example 16.122, 5-{6-(5-chloropyridin-3-yl)-8-(hexahydro-2H-pyrano[4,3-b]pyridin-1(5H)-yl)-7-[(trans-4-methylcyclohexyl)methyl]-7H-purin-2-yl}-1,3,4-oxadiazol-2(3H)-one] was tested. Which IC50 did it give?
Answer: The IC50 was 203 nM.

Question: How did the IC50 turn out when `C[C@H]1CC[C@H](Cn2c(N3CCOC4CCCCC43)nc3nc(-c4noc(=O)[nH]4)nc(-c4cncc(Cl)c4)c32)CC1` (single isomer, unassigned) [Example 16.52, 3-[6-(5-chloropyridin-3-yl)-7-[(trans-4-methylcyclohexyl)methyl]-8-(octahydro-4H-1,4-benzoxazin-4-yl)-7H-purin-2-yl]-1,2,4-oxadiazol-5(4H)-one] was run?
Answer: Its IC50 is 1 nM.

Question: Which IC50 does the source give for `C[C@H]1CC[C@H](Cn2c(N3CCCC4COCCC43)nc3nc(-c4n[nH]c(=O)o4)nc(-c4cccc(Cl)c4)c32)CC1` (single isomer, unassigned) [Example 16.124, 5-{6-(3-chlorophenyl)-8-(hexahydro-2H-pyrano[4,3-b]pyridin-1(5H)-yl)-7-[(trans-4-methylcyclohexyl)methyl]-7H-purin-2-yl}-1,3,4-oxadiazol-2(3H)-one] here?
Answer: The IC50 was 263 nM.

Question: `COC(C)(C)C1CCCN1c1nc2nc(-c3n[nH]c(=O)o3)nc(-c3cccc(Cl)c3)c2n1C[C@H]1CC[C@H](C)CC1` (single isomer, unassigned) [Example 16.71, 5-{6-(3-chlorophenyl)-8-[2-(1-methoxy-1-methylethyl)pyrrolidin-1-yl]-7-[(trans-4-methylcyclohexyl)methyl]-7H-purin-2-yl}-1,3,4-oxadiazol-2(3H)-one] was tested. Which IC50 did it give?
Answer: Its IC50 is 2.47 nM.

Same assay, conditions: Table 18

Question: Which IC50 does the source give for `CC([C@H]1CC[C@H](C)CC1)n1c(N2CCOC3CCCC32)nc2nc(-c3noc(=O)[nH]3)nc(-c3cncc(Cl)c3)c21` (single isomer, unassigned) [Example 18.52, 3-{6-(5-chloropyridin-3-yl)-8-(hexahydrocyclopenta[b][1,4]oxazin-4(4aH)-yl)-7-[1-(trans-4-methylcyclohexyl)ethyl]-7H-purin-2-yl}-1,2,4-oxadiazol-5(4H)-one] here?
Answer: The IC50 was 5.44 nM.

Question: How did the IC50 turn out when `CC([C@H]1CC[C@H](C)CC1)n1c(N2CCOC3CCCC32)nc2nc(-c3n[nH]c(=O)o3)nc(-c3cccc(Cl)c3)c21` (single isomer, unassigned) [Example 18.39, 5-{6-(3-chlorophenyl)-8-(hexahydrocyclopenta[b][1,4]oxazin-4(4aH)-yl)-7-[1-(trans-4-methylcyclohexyl)ethyl]-7H-purin-2-yl}-1,3,4-oxadiazol-2(3H)-one] was run?
Answer: The IC50 was 3.73 nM.

Same assay, conditions: Table 23

Question: Which IC50 does the source give for `COCC(C)(OC)c1nc2nc(-c3noc(=O)[nH]3)nc(-c3cncc(Cl)c3)c2n1C[C@H]1CC[C@H](C)CC1` (mixture of isomers) [Example 23.107, 3-{6-(5-chloropyridin-3-yl)-8-(1,2-dimethoxy-1-methylethyl)-7-[(trans-4-methylcyclohexyl)methyl]-7H-purin-2-yl}-1,2,4-oxadiazol-5(4H)-one] here?
Answer: Its IC50 is 5.37 nM.

Question: With `CC(O)(c1nc2nc(-c3n[nH]c(=O)o3)nc(-c3cccc(Cl)c3)c2n1C[C@H]1CC[C@H](C)CC1)C1CCCCC1` (mixture of isomers) [Example 23.11, 5-{6-(3-chlorophenyl)-8-(1-cyclohexyl-1-hydroxyethyl)-7-[(trans-4-methylcyclohexyl)methyl]-7H-purin-2-yl}-1,3,4-oxadiazol-2(3H)-one] as the compound, how does the IC50 read?
Answer: Its IC50 is 214 nM.

Question: With `CC1CCCCC1(F)c1nc2nc(-c3n[nH]c(=O)o3)nc(-c3cncc(Cl)c3)c2n1C[C@H]1CC[C@H](C)CC1` (single isomer, unassigned) [Example 23.82, 5-{6-(5-chloropyridin-3-yl)-8-(1-fluoro-2-methylcyclohexyl)-7-[(trans-4-methylcyclohexyl)methyl]-7H-purin-2-yl}-1,3,4-oxadiazol-2(3H)-one] as the compound, how does the IC50 read?
Answer: Its IC50 is 7.63 nM.

Question: `COC(C)(c1nc2nc(-c3n[nH]c(=O)o3)nc(-c3cncc(Cl)c3)c2n1C[C@H]1CC[C@H](C)CC1)C1CCCC1` (mixture of isomers) [Example 23.72, 5-{6-(5-chloropyridin-3-yl)-8-(1-cyclopentyl-1-methoxyethyl)-7-[(trans-4-methylcyclohexyl)methyl]-7H-purin-2-yl}-1,3,4-oxadiazol-2(3H)-one] was tested. Which IC50 did it give?
Answer: Its IC50 is 2.6 nM.

Question: How did the IC50 turn out when `COC(C)(c1ccccc1F)c1nc2nc(-c3noc(=O)[nH]3)nc(-c3cncc(Cl)c3)c2n1C[C@H]1CC[C@H](C)CC1` (single isomer, unassigned) [Example 23.50, 3-{6-(5-chloropyridin-3-yl)-8-[1-(2-fluorophenyl)-1-methoxyethyl]-7-[(trans-4-methylcyclohexyl)methyl]-7H-purin-2-yl}-1,2,4-oxadiazol-5(4H)-one] was run?
Answer: The IC50 was 6.55 nM.

Question: How did the IC50 turn out when `CC(F)(c1c(F)cccc1F)c1nc2nc(-c3n[nH]c(=O)o3)nc(-c3cncc(Cl)c3)c2n1C[C@H]1CC[C@H](C)CC1` (single isomer, unassigned) [Example 23.80, 5-{6-(5-chloropyridin-3-yl)-8-[1-(2,6-difluorophenyl)-1-fluoroethyl]-7-[(trans-4-methylcyclohexyl)methyl]-7H-purin-2-yl}-1,3,4-oxadiazol-2(3H)-one] was run?
Answer: Its IC50 is 10.7 nM.

Question: For `C[C@H]1CC[C@H](Cn2c(C(O)C3CCCCC3)nc3nc(-c4n[nH]c(=O)o4)nc(-c4cccc(Cl)c4)c32)CC1` (mixture of isomers) [Example 23.7, 5-{6-(3-chlorophenyl)-8-[cyclohexyl(hydroxy)methyl]-7-[(trans-4-methylcyclohexyl)methyl]-7H-purin-2-yl}-1,3,4-oxadiazol-2(3H)-one], which IC50 is on record?
Answer: Its IC50 is 20.2 nM.

Question: How did the IC50 turn out when `CC1COCCC1(F)c1nc2nc(-c3noc(=O)[nH]3)nc(-c3cncc(Cl)c3)c2n1C[C@H]1CC[C@H](C)CC1` (single isomer, unassigned) [Example 23.94, 3-{6-(5-chloropyridin-3-yl)-8-(4-fluoro-3-methyltetrahydro-2H-pyran-4-yl)-7-[(trans-4-methylcyclohexyl)methyl]-7H-purin-2-yl}-1,2,4-oxadiazol-5(4H)-one] was run?
Answer: The IC50 was 23.4 nM.

Question: `COC(C)(c1nc2nc(-c3noc(=O)[nH]3)nc(-c3cncc(Cl)c3)c2n1C[C@H]1CC[C@H](C)CC1)C1CCCC1` (mixture of isomers) [Example 23.71, 3-{6-(5-chloropyridin-3-yl)-8-(1-cyclopentyl-1-methoxyethyl)-7-[(trans-4-methylcyclohexyl)methyl]-7H-purin-2-yl}-1,2,4-oxadiazol-5(4H)-one] was tested. Which IC50 did it give?
Answer: The IC50 was 1.29 nM.

Question: For `COC(C)(c1ccccn1)c1nc2nc(-c3n[nH]c(=O)o3)nc(-c3cccc(Cl)c3)c2n1C[C@H]1CC[C@H](C)CC1` (single isomer, unassigned) [Example 23.55, 5-{6-(3-chlorophenyl)-8-(1-methoxy-1-pyridin-2-ylethyl)-7-[(trans-4-methylcyclohexyl)methyl]-7H-purin-2-yl}-1,3,4-oxadiazol-2(3H)-one], which IC50 is on record?
Answer: Its IC50 is 4.26 nM.

Question: Which IC50 does the source give for `C[C@H]1CC[C@H](Cn2c(C(F)C3CCCCC3)nc3nc(-c4noc(=O)[nH]4)nc(-c4cccc(Cl)c4)c32)CC1` (mixture of isomers) [Example 23.29, 3-{6-(3-chlorophenyl)-8-[cyclohexyl(fluoro)methyl]-7-[(trans-4-methylcyclohexyl)methyl]-7H-purin-2-yl}-1,2,4-oxadiazol-5(4H)-one] here?
Answer: Its IC50 is 34.8 nM.

Question: How did the IC50 turn out when `COC(c1nc2nc(-c3n[nH]c(=O)o3)nc(-c3cncc(Cl)c3)c2n1C[C@H]1CC[C@H](C)CC1)C1CCOCC1` (mixture of isomers) [Example 23.20, 5-{6-(5-chloropyridin-3-yl)-8-[methoxy(tetrahydro-2H-pyran-4-yl)methyl]-7-[(trans-4-methylcyclohexyl)methyl]-7H-purin-2-yl}-1,3,4-oxadiazol-2(3H)-one] was run?
Answer: The IC50 was 27.6 nM.

Question: How did the IC50 turn out when `CC(O)(c1nc2nc(-c3noc(=O)[nH]3)nc(-c3cccc(Cl)c3)c2n1C[C@H]1CC[C@H](C)CC1)C1CCCCC1` (mixture of isomers) [Example 23.10, 3-{6-(3-chlorophenyl)-8-(1-cyclohexyl-1-hydroxyethyl)-7-[(trans-4-methylcyclohexyl)methyl]-7H-purin-2-yl}-1,2,4-oxadiazol-5(4H)-one] was run?
Answer: Its IC50 is 15.6 nM.
